In experiment [1] the target is T1, GII.4 Saga P dimers (Norovirus Hu/GII-4/Saga4/2006/JP, UniProt B5BTR7).
T1 construct: isotope-labelled, non-deamidated
The experiment in a line: 1H, […] TROSY HSQC CSP titration. It counts as binding.

Experiment [2] deals with T1, GII.4 Saga P dimers. The experiment in a line: 1H, […] TROSY HSQC CSP. In kind it is binding. The conditions noted are these: 2 mM ligand, pH 7.3, 298 K; same site as CA.
Experiment [3] addresses T2, GII.4 Saga VLPs (Norovirus Hu/GII-4/Saga4/2006/JP, UniProt B5BTR7).
T2 construct: virus-like particles of VP1, arginine tail present; donated by G. Hansman
The experiment in a line: STD NMR. In kind it is binding. The conditions noted are these: pH 7.3, 277 K.

The target of experiment [4] is T2, GII.4 Saga VLPs. The experiment in a line: STD NMR titration, single saturation time […] s. In kind it is binding.
A further experiment addresses T3, GII.4 MI001 P dimers (Norovirus Hu/GII.4/MI001/2011/USA, UniProt S5FWF8).
T3 construct: [U-2H,15N]-labelled
The experiment in a line: 1H, […] TROSY HSQC CSP titration. It counts as binding.

Another experiment concerns the target T4, GII.4 Ast6139 VLPs (Norwalk virus, UniProt Q70ET2).
T4 construct: virus-like particles of VP1, arginine tail present; donated by F. Parra
The experiment in a line: STD NMR titration, single saturation time […] s. It counts as binding.

A further experiment addresses T5, GII.7 RKI VLPs (Norovirus Hu/GII.7/VLP 05G954/2005/DE, UniProt S5GGK6).
T5 construct: virus-like particles of VP1, arginine tail present; gift of S. Taube
Put plainly: STD NMR titration, single saturation time […] s. It counts as binding.

Another experiment concerns the target T6, GI.1 Norwalk VLPs (Norovirus GI, UniProt A0A1S5QJB8).
T6 construct: virus-like particles of VP1, arginine tail present; donated by G. Hansman
Put plainly: STD NMR titration, single saturation time […] s. In kind it is binding. Particulars: read-out: K D app; pH 7.3, 277 K, 10 % D2O; apparent, ligand aggregation.

A further experiment deals with T7, GII.17 Kawasaki308 VLPs (Norovirus Hu/GII/JP/2015/GII.P17_GII.17/Kawasaki308, UniProt A0A0E4B1P1).
T7 construct: gene VP1; virus-like particles of VP1, arginine tail present; donated by G. Hansman
The experiment in a line: STD NMR titration, single saturation time […] s. In kind it is binding.

The next experiment concerns the target T8, GII.17 Saitama/T87 VLPs (Norovirus GII/Hu/JP/2002/GII.P16_GII.17/Saitama/T87, UniProt A0A076JB57).
T8 construct: gene VP1; virus-like particles of VP1, arginine tail present; donated by G. Hansman
The experiment in a line: biochemical. Details: STD NMR titration of norovirus VLPs with cholic acid, single saturation time 2 s; apparent KD from STD-AF. On the procedure: Samples containing VLPs were prepared at 0.41 to 1 mg mL^−1 VP1 concentration (6.9 to 17.7 μM binding sites) in PBS pH 7.3, 100 μM [D6]DSS, 0.02 % NaN3 and 10 % D2O. […] Bile acid stock solution were prepared as described above for backbone chemical shift perturbation experiments. For N373D Saga P dimers, one sample containing 45 μM P dimers, 100 μM [D6]DSS in 20 mM fully deuterated sodium phosphate buffer (pH 7.45) was prepared and titrated with CA up to a final concentration of 12 mM. […] In one set of experiments we performed titrations at single saturation times of 2 s15 (cf. Figure S5 and Table S1). Another titration experiment made use of initial STD growth rates16 determined from STD build up curves (Figure S6 and Table S2). The initial growth rates were also used to derive a binding epitope for CA (Figures 2 and S3). The apparent K D values obtained are similar, with the value resulting from initial growth rates being slightly smaller, as expected.

Experiment [5] addresses T9, GII.17 Kawasaki308 P dimers (Norovirus Hu/GII/JP/2015/GII.P17_GII.17/Kawasaki308, UniProt A0A0E4B1P1).
T9 construct: gene VP1; MIL(ProS)V(ProS)A methyl-labelled
Put plainly: methyl TROSY CSP titration. In kind it is binding. From the text:
methyl TROSY CSP titration on GII.17 Kawasaki308 P dimers

In experiment [6] the target is T2, GII.4 Saga VLPs. The experiment in a line: biochemical. Details: STD NMR titration of norovirus VLPs with cholic acid; apparent KD from initial STD growth rates. How it is done: Samples containing VLPs were prepared at 0.41 to 1 mg mL^−1 VP1 concentration (6.9 to 17.7 μM binding sites) in PBS pH 7.3, 100 μM [D6]DSS, 0.02 % NaN3 and 10 % D2O. […] Bile acid stock solution were prepared as described above for backbone chemical shift perturbation experiments. For N373D Saga P dimers, one sample containing 45 μM P dimers, 100 μM [D6]DSS in 20 mM fully deuterated sodium phosphate buffer (pH 7.45) was prepared and titrated with CA up to a final concentration of 12 mM. with STD‐AFmax being the maximum STD‐AF for a given proton, k sat the saturation rate constant, and t sat the saturation time. Initial slopes STD‐AF0 were obtained from STD‐AF0=STD‐AFmax k sat, and were plotted as a function of the ligand concentration. Fitting Equation (1) to the resulting binding isotherms delivered dissociation constants K D. For curve fitting Origin2016G (OriginLab) was used. To compare P dimers to viral capsids, we also obtained STD NMR titration curves for CA binding to GII.4 Saga VLPs (Figure 3 D; Table 1, No. 5 and 6). In one set of experiments we performed titrations at single saturation times of 2 s15 (cf. Figure S5 and Table S1). Another titration experiment made use of initial STD growth rates16 determined from STD build up curves (Figure S6 and Table S2). The initial growth rates were also used to derive a binding epitope for CA (Figures 2 and S3). […]

The target of another experiment is T10, GII.10 Vietnam026 VLPs (Norwalk virus, UniProt Q5F4T5).
T10 construct: virus-like particles of VP1, arginine tail present; donated by G. Hansman
Put plainly: STD NMR titration, single saturation time […] s. It counts as binding.

From article PMC7186840, “Chemical‐Shift Perturbations Reflect Bile Acid Binding to Norovirus Coat Protein: Recognition Comes in Different Flavors” (Chembiochem, 2019) come the findings set out here.

The molecule `C[C@H](CCC(=O)NCC(=O)O)[C@H]1CC[C@H]2[C@@H]3[C@H](O)C[C@@H]4C[C@H](O)CC[C@]4(C)[C@H]3CC[C@]12C` [GCDCA, glycochenodeoxycholic acid] registered a Kd on GII.4 Saga P dimers [1] of 1.5 ± 0.3 mM.
Still for that read-out and setting: under `CC1(C)[C@@H](O[C@H]2O[C@H](C(=O)O)[C@@H](O)[C@H](O)[C@H]2O[C@@H]2O[C@H](C(=O)O)[C@@H](O)[C@H](O)[C@H]2O)CC[C@]2(C)[C@H]3C(=O)C=C4[C@@H]5C[C@@](C)(C(=O)O)CC[C@]5(C)CC[C@@]4(C)[C@]3(C)CC[C@@H]12` [GR, glycyrrhizic acid] stands 13.8 ± 0.4 mM.
In the case of `C[C@H](CCC(=O)O)[C@H]1CC[C@H]2[C@@H]3[C@H](O)C[C@@H]4C[C@H](O)CC[C@]4(C)[C@H]3CC[C@]12C` [CDCA, chenodeoxycholic acid], the “1H,15N TROSY HSQC CSP” value on GII.4 Saga P dimers [2] is “Binding of DCA, GCDCA, and CDCA yields very similar CSPs reflecting binding to the same site”.
As to `C[C@H](CCC(=O)NCC(=O)O)[C@H]1CC[C@H]2[C@@H]3[C@H](O)C[C@@H]4C[C@H](O)CC[C@]4(C)[C@H]3C[C@H](O)[C@]12C` [GCA, sodium glycocholate hydrate], the “STD NMR” value on GII.4 Saga VLPs [3] (1 mM ligand in presence of TCDCA (1 mM)) is “In each case STD NMR spectra indicate binding of bile acids to VLPs”.
As for `C[C@H](CCC(=O)O)[C@H]1CC[C@H]2[C@@H]3CC[C@@H]4C[C@H](O)CC[C@]4(C)[C@H]3C[C@H](O)[C@]12C` [DCA, deoxycholic acid], the “1H,15N TROSY HSQC CSP” value on GII.4 Saga P dimers [2] is “Binding of DCA, GCDCA, and CDCA yields very similar CSPs reflecting binding to the same site”.
As for `C[C@H](CCC(=O)NCCS(=O)(=O)O)[C@H]1CC[C@H]2[C@@H]3[C@H](O)C[C@@H]4C[C@H](O)CC[C@]4(C)[C@H]3CC[C@]12C` [TCDCA, sodium taurochenodeoxycholate], the “STD NMR” value on GII.4 Saga VLPs [3] (1 mM ligand in presence of GCA (1 mM)) is recorded as “In each case STD NMR spectra indicate binding of bile acids to VLPs”.
In the case of `C[C@H](CCC(=O)O)[C@H]1CC[C@H]2[C@@H]3[C@H](O)C[C@@H]4C[C@H](O)CC[C@]4(C)[C@H]3C[C@H](O)[C@]12C` [CA, cholic acid], the Kd at GII.4 Saga VLPs [4] amounted to 4.7 ± 0.4 mM; on GII.4 MI001 P dimers it was 11.1 ± 0.9 mM; on GII.4 Ast6139 VLPs it was 26.5 ± 8 mM; on GII.7 RKI VLPs it was 10.9 ± 4.3 mM; on GI.1 Norwalk VLPs, 12.2 ± 1.8 mM; at GII.17 Kawasaki308 VLPs, 31.5 ± 2.8 mM. The Kd at GII.17 Saitama/T87 VLPs came to 6.6 ± 0.4 mM; on GII.4 Saga P dimers [1] it was 10 ± 0.6 mM; in [5] it was 20.1 ± 2.9 mM; on GII.4 Saga VLPs [6], 3.6 ± 0.7 mM; at GII.10 Vietnam026 VLPs, 12.9 ± 2.9 mM.
